Several values for one entry are separate records, joined by “and”; a condition that tells them apart may be missing. Identical values can stand only once. Toxic doses and inconclusive results are not listed.

The subject of this assay is P388 leukemia ip, CD2F1 mice, survival T/C. Description: NCI In Vivo Anticancer Drug Screen. Data for tumor model P388 Leukemia (intraperitoneal) in CD2F1 (CDF1) mice. The settings on record: endpoint: median survival time, higher = longer survival. The procedure, abridged: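 Mice carrying the transplanted tumor received test compound or vehicle. Survival was recorded in each group, and the value is the treated-group measurement divided by that of the vehicle-treated control group.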

Where [1] appears, read: dose: 50.0 mg/kg/injection, schedule: Q01DX009 (ip), vehicle: Klucel (hydroxypropylcellulose) (HPC).
[2] abbreviates: dose: 100.0 mg/kg/injection, schedule: Q01DX009 (ip), vehicle: Klucel (hydroxypropylcellulose) (HPC).
[3] abbreviates: dose: 50.0 mg/kg/injection, schedule: Q01DX009 (ip), vehicle: saline.
[4] abbreviates: dose: 100.0 mg/kg/injection, schedule: Q01DX001 (ip), vehicle: Klucel (hydroxypropylcellulose) (HPC).
Where [5] appears, read: dose: 60.0 mg/kg/injection, schedule: Q01DX005 (ip), vehicle: saline with Tween-80.
Where [6] appears, read: dose: 100.0 mg/kg/injection, schedule: Q01DX009 (ip), vehicle: saline with Tween-80.
Setting [7] is: dose: 200.0 mg/kg/injection, schedule: Q01DX009 (ip), vehicle: saline with Tween-80.
[8] abbreviates: dose: 120.0 mg/kg/injection, schedule: Q01DX005 (ip), vehicle: saline with Tween-80.
[9] abbreviates: dose: 240.0 mg/kg/injection, schedule: Q01DX005 (ip), vehicle: saline with Tween-80.
Setting [10] is: dose: 50.0 mg/kg/injection, schedule: Q01DX005 (ip), vehicle: saline.
Setting [11] is: dose: 100.0 mg/kg/injection, schedule: Q01DX005 (ip), vehicle: saline.
Setting [12] is: dose: 200.0 mg/kg/injection, schedule: Q01DX005 (ip), vehicle: saline.
Setting [13] is: dose: 100.0 mg/kg/injection, schedule: Q01DX009 (ip), vehicle: saline.

On to `CC(C)(C)CC(C)(C)NC(=S)NC1C2CC3CC(C2)CC1C3` (stereo unspecified), for which the T/C is 89 % of control under setting [1] and 90 % of control under setting [2].
For `CC(=O)Nn1cnc2[nH]ncc2c1=O`, the T/C was 102 % of control (dose: 60.0 mg/kg/injection, schedule: Q01DX005 (ip), vehicle: saline); 101 % of control (dose: 120.0 mg/kg/injection, schedule: Q01DX005 (ip), vehicle: saline); 101 % of control (dose: 240.0 mg/kg/injection, schedule: Q01DX005 (ip), vehicle: saline).
Regarding `O=C1C2C3C=CC(C2C(=O)N1Cc1ccccc1)C1C2C(=O)N(Cc4ccccc4)C(=O)C2C31` (stereo unspecified), the T/C was 101 % of control (dose: 12.5 mg/kg/injection, schedule: Q01DX001 (ip), vehicle: saline with Tween-80) and 90 % of control (dose: 25.0 mg/kg/injection, schedule: Q01DX001 (ip), vehicle: saline with Tween-80).
Turning to `O=C1NC(CO)C(=O)N2CCCC12` (stereo unspecified), the T/C is, setting by setting: (dose: 12.5 mg/kg/injection, schedule: Q01DX009 (ip), vehicle: saline) 100 % of control; (dose: 25.0 mg/kg/injection, schedule: Q01DX009 (ip), vehicle: saline) 99 % of control; under setting [3], 99 % of control.
For the compound `COC(=O)[C@@]12OC[C@]34[C@H]([C@@H](O)[C@@H]1O)[C@@]1(C)C=C(OC5OC(CO)C(O)C(O)C5O)C(=O)[C@@H](C)[C@@H]1C[C@H]3OC(=O)[C@H](OC(=O)/C=C(\C)C(C)C)[C@@H]24` (stereo partly specified), the T/C reads like this: (dose: 2.0 mg/kg/injection, schedule: Q01DX005 (ip), vehicle: saline + alcohol) 100 % of control; (dose: 4.0 mg/kg/injection, schedule: Q01DX005 (ip), vehicle: saline + alcohol) 94 % of control; (dose: 8.0 mg/kg/injection, schedule: Q01DX005 (ip), vehicle: saline + alcohol) 94 % of control; (dose: 16.0 mg/kg/injection, schedule: Q01DX005 (ip), vehicle: saline + alcohol) 106 % of control; (dose: 32.0 mg/kg/injection, schedule: Q01DX005 (ip), vehicle: saline + alcohol) 111 % of control; (dose: 64.0 mg/kg/injection, schedule: Q01DX005 (ip), vehicle: saline + alcohol) 108 % of control.
For the compound `COc1ccccc1NC(=O)CC(=O)c1ccc([N+](=O)[O-])cc1`, the T/C runs as follows: (dose: 6.25 mg/kg/injection, schedule: Q04DX003 (ip), vehicle: saline sonified) 100 % of control; (dose: 12.5 mg/kg/injection, schedule: Q04DX003 (ip), vehicle: saline sonified) 100 % of control; (dose: 25.0 mg/kg/injection, schedule: Q04DX003 (ip), vehicle: saline sonified) 100 % of control.
Consider `C/C(=N\N=C(/[Se])N1CCN(c2ccc(F)cc2)CC1)c1ccccn1`, for which the T/C runs as follows: (dose: 100.0 mg/kg/injection, schedule: Q04DX003 (ip), vehicle: Klucel (hydroxypropylcellulose) (HPC)) 101 % of control; (dose: 200.0 mg/kg/injection, schedule: Q04DX003 (ip), vehicle: Klucel (hydroxypropylcellulose) (HPC)) 108 % of control; (dose: 400.0 mg/kg/injection, schedule: Q04DX003 (ip), vehicle: Klucel (hydroxypropylcellulose) (HPC)) 100 % of control.
Consider `Cc1nn(C(N)=S)c(C)c1N=Nc1ccc([N+](=O)[O-])cc1`, for which the T/C reads like this: under setting [4], 104 % of control; (dose: 200.0 mg/kg/injection, schedule: Q01DX001 (ip), vehicle: Klucel (hydroxypropylcellulose) (HPC)) 108 % of control; (dose: 400.0 mg/kg/injection, schedule: Q01DX001 (ip), vehicle: Klucel (hydroxypropylcellulose) (HPC)) 113 % of control.
For the compound `N#CNc1c2ccccc2nc2ccccc12`, the T/C reads like this: (dose: 15.0 mg/kg/injection, schedule: Q01DX005 (ip), vehicle: saline with Tween-80) 101 % of control; (dose: 30.0 mg/kg/injection, schedule: Q01DX005 (ip), vehicle: saline with Tween-80) 97 % of control; under setting [5], 99 % of control and 100 % of control.
In the case of `O=C1C(C2=CCCCC2)CCCC1C1=CCCCC1` (stereo unspecified), the T/C was 89 % of control (dose: 50.0 mg/kg/injection, schedule: Q01DX009 (ip), vehicle: saline with Tween-80); 91 % of control under setting [6]; 104 % of control under setting [7].
Regarding `CCCCCCCCCCCCCCCCS[As](C)C`, the T/C was 92 % of control (dose: 50.0 mg/kg/injection, schedule: Q01DX005 (ip), vehicle: saline with Tween-80); 100 % of control (dose: 100.0 mg/kg/injection, schedule: Q01DX005 (ip), vehicle: saline with Tween-80); 96 % of control (dose: 200.0 mg/kg/injection, schedule: Q01DX005 (ip), vehicle: saline with Tween-80).
With `COc1ccc(NC(=O)CCC(=O)O)cc1`, the T/C was 95 % of control under setting [6]; 95 % of control under setting [7]; 91 % of control (dose: 400.0 mg/kg/injection, schedule: Q01DX009 (ip), vehicle: saline with Tween-80).
As for `COc1ccccc1C(O)c1cnc(C)n1Cc1ccccc1` (stereo unspecified), the T/C is 98 % of control under setting [5], 107 % of control under setting [8] and 97 % of control under setting [9].
In the case of `COc1ccc(C2=Nc3ccccc3SC(c3ccc(OC)cc3)C2)cc1` (stereo unspecified), the T/C is 102 % of control under setting [1]; 96 % of control under setting [2]; 88 % of control (dose: 200.0 mg/kg/injection, schedule: Q01DX009 (ip), vehicle: Klucel (hydroxypropylcellulose) (HPC)).
Regarding `CC(C)c1oc(=O)cc2c1C(O)C1OC(=O)C3(C)C(O)C4OC4C2(C)C13` (stereo unspecified) (tested in a mixture with another compound), the T/C is, setting by setting: (dose: 15.0 mg/kg/injection, schedule: Q01DX009 (ip), vehicle: saline with Tween-80) 113 % of control; (dose: 60.0 mg/kg/injection, schedule: Q01DX009 (ip), vehicle: saline with Tween-80) 123 % of control.
Regarding `COc1ccc(C(C)c2cc3c(cc2O)OCO3)cc1` (stereo unspecified), the T/C by setting is: (dose: 50.0 mg/kg/injection, schedule: Q01DX005 (ip), vehicle: distilled water + Tween-80) 105 % of control; (dose: 100.0 mg/kg/injection, schedule: Q01DX005 (ip), vehicle: distilled water + Tween-80) 99 % of control; (dose: 200.0 mg/kg/injection, schedule: Q01DX005 (ip), vehicle: distilled water + Tween-80) 108 % of control.
As for `O=C1C(Cl)=C(Nc2cc(Cl)ccc2Cl)C(=O)c2ccccc21`, the T/C by setting is: under setting [5], 98 % of control; under setting [8], 102 % of control; under setting [9], 101 % of control.
For `CC1=COC(C)(C2NC(C)(C)CC(C)O2)CC1` (stereo unspecified), the T/C is 107 % of control under setting [10], 103 % of control under setting [11] and 102 % of control under setting [12].
The matching figures for `CC(C)C(=O)C(O)C(C)C` (stereo unspecified): 92 % of control, 103 % of control and 100 % of control.
For the compound `CCOC(=O)[C@H]1C(CC)=NOC1C` (stereo partly specified), the T/C runs as follows: under setting [5], 102 % of control; under setting [8], 102 % of control; under setting [9], 101 % of control.
Turning to `O=C(Nc1ccc(N=C=S)cc1)c1cc(Br)cc(Br)c1O`, the T/C (dose: 50.0 mg/kg/injection, schedule: Q01DX001 (ip), vehicle: Klucel (hydroxypropylcellulose) (HPC)) was 101 % of control and the T/C under setting [4] was 99 % of control.
Turning to `FC(F)(F)C1(C(F)(F)F)OI(Cl)c2ccccc21`, the T/C runs as follows: (dose: 12.5 mg/kg/injection, schedule: Q04DX002 (ip), vehicle: Klucel (hydroxypropylcellulose) (HPC)) 99 % of control; (dose: 25.0 mg/kg/injection, schedule: Q04DX002 (ip), vehicle: Klucel (hydroxypropylcellulose) (HPC)) 99 % of control; (dose: 50.0 mg/kg/injection, schedule: Q04DX002 (ip), vehicle: Klucel (hydroxypropylcellulose) (HPC)) 98 % of control.
In the case of `Cc1ncc(C[n+]2csc(CCO)c2C)c(N)n1`, the T/C is, setting by setting: under setting [3], 108 % of control; under setting [13], 105 % of control; (dose: 200.0 mg/kg/injection, schedule: Q01DX009 (ip), vehicle: saline) 97 % of control.
As to `NS(=O)(=O)c1ccc(NC(=O)Oc2ccc([N+](=O)[O-])cc2)cc1`, the T/C (dose: 100.0 mg/kg/injection, schedule: Q01DX001 (ip), vehicle: saline with Tween-80) is 100 % of control; the T/C (dose: 200.0 mg/kg/injection, schedule: Q01DX001 (ip), vehicle: saline with Tween-80) is 100 % of control; the T/C (dose: 400.0 mg/kg/injection, schedule: Q01DX001 (ip), vehicle: saline with Tween-80) is 104 % of control.
`Cc1ccc2c(c1)NC(=O)CC(c1ccccc1)=N2`: the T/C reads like this: under setting [5], 97 % of control; under setting [8], 96 % of control; under setting [9], 96 % of control.
In the case of `COC(OC)C(C)(C)NC1CCCCC1`, the T/C is, setting by setting: under setting [3], 105 % of control; under setting [13], 104 % of control.
